Bridge positions count the residues as written; N and C are the ends. Peptide text beside a SMILES is read from it.
Key:
[1] = Stability in human serum (HPLC); assay type: in vitro ADME; parameters: remaining at 5 h / remaining at 48 h: dose or concentration left out as unconfirmed; settings: 37 °C; for remaining at 5 h: after 5 h of incubation, read-out: intact peptide detected by HPLC; for state of peptide in human serum: after 24 h; for remaining at 48 h: after 48 h of incubation, read-out: initial concentration of peptide remaining unchanged (HPLC)
Procedure: Next, we examined the stabilities of inhibitors 3, 5, 6, and FI in human serum (Figure 6). As expected, both monocyclic peptides (3 and FI) were degraded more rapidly than bicyclic inhibitors 5 and 6. After 5 h of incubation, about 25% of intact peptide 3 and 15% of FI were detected by HPLC. […] By contrast, the bicyclic peptides were clearly more resistant and stable. About 59% and 28% (based on HPLC data) of the initial concentrations of peptide 5 and peptide 6, respectively, remained unchanged even after 48 h of incubation. […] This possible protease-driven degradation was not confirmed in any additional experiments and must be treated with caution. It might be also speculated that the observed decrease in concentrations of both bicyclic peptides is related to binding to serum proteins during the long incubation process and subsequent sample preparation before HPLC analysis, as mentioned elsewhere.[36] Generally, our results are in accordance with the widely recognized observation that macrocyclization of peptides increases their stability. […]
(§1) Next step was addition of appropriate peptide solution
(§2) (final concentration in well 100 µM) and 30 min incubation in 37 °C. After this time 10 µL substrate (100 µM final concentration) was added to the well. Percentage inhibition of the enzyme was calculated relative to the control sample without inhibitor.
Human serum from plasma (Sigma Aldrich, Germany) was prepared for the assay as referred previously.8 The experiments were carried out according to the procedure described before.2 The initial concentration of the peptide solutions was 1.54 mM. Each peptide solution was then diluted 10 times with human serum and incubated at 37 °C. Immediately after the start of incubation, 1, 2, 3, 5 and 24 […]
hours the samples of 200 μL were taken and mixed with 200 μL of acetonitrile to separate the human serum proteins. The formed precipitate was removed by centrifugation for 10 min at 13,000 rpm. The supernatant was stored in 3-4 °C for at least 1 hour before being analyzed by RP-HPLC (linear gradient 10-90% phase B, 40 min., Kinetex 5 μm XB-C18 100Å 150 x 4.6 mm) and MALDI-MS (Autoflex maX MALDI-TOF spectrometer, Bruker Daltonics, Germany). In order to determine peptide stability at each time point, the peptide peak area from recorded chromatograms was compared with the peptide peak area obtained directly after mixing peptide and plasma, and expressed as its percentage.
Molecular dynamics simulations […]
(Figure 5SA) bound to the furin active site were built based on the crystal structure of MT-SP1 in complex with SFTI-1 (PDB ID: 1P8J 2.0 Å) by aligning catalytic triad of both proteins in PyMOL, Molecular Graphics System, Version 2.0 Schrödinger, LLC software. Next, SFTI-1 peptide was replaced by one of the five designed ligands (Figure 5SB). Five resulting furin-inhibitor complexes were further used as starting structures for the molecular dynamic (MD) calculations.
The AMBER20 suite was used to perform MD simulations,9 ff14SBonlysc10 force field parameters were used. The initial complex structures were built in the xLeap module of AMBER20. The periodic boundary conditions with TIP3P11 octahedral water box and Na+ counterions were used. Two steps of energy minimization were performed: first 500 steepest descent and then 1000 conjugate gradient cycles with harmonic restraints of 10 kcal/mol/Å2 on the solute, next 3000 steepest descent and 3000 conjugate gradient cycles without restraints. Next, the systems were heated up to 300K for 10 ps in NVT ensemble followed by the simulations in NPT ensemble at the pressure of 105 Pa. Finally, five independent MD production runs of 100 ns for each furin-inhibitor complex were performed in NPT ensemble. The time integration step was 2 fs, the cutoff for non-bonded interactions was 8 Å, the SHAKE algorithm for the covalent bonds that included hydrogen atoms12 and the Particle Mesh Ewald procedure13 were used. The […]

[2] = tested on: furin-like enzyme activity in PANC-1 cell lysate; test: Total furin-like enzyme activity in PANC-1 cell lysate; assay type: biochemical, human; settings: peptide 100 µM
Procedure: The presence of furin in PANC-1 cell lysate was indicated by analyzing the release of fluorescent AMC product after incubation of furin substrate (Pyr-Arg-Thr-Lys-Arg-AMC) in the lysate, as described elsewhere.[31],[32] However, we are aware that this assay tends to reflect total furin-like enzyme activity rather than the activity of furin exclusively. This is the case because the liberation of AMC may be catalyzed not only by furin but also by an enzyme with a similar substrate preference, such as other PCs.[31] […] For comparison, the effect of a strong trypsin inhibitor, […] SFTI-1, on furin-like activity was insignificant under the same assay conditions. […] It is likely that SFTI-1 may provide protection for furin inhibitors from degradation by trypsin-like proteases. […]
µL for matriptases and 100 µL for furin. Measurements were carried out using excitation and emission wavelengths of 380 nm and 450 nm. The percentage inhibition of an enzyme was calculated relative to the control sample without an inhibitor. […]
Total furin-like enzyme inhibition/activity in PANC-1 cell lysates
Cell line and cell culture. The pancreatic cancer cell line, PANC-1, was obtained from the American Type Culture Collection, ATCC (Manassas, USA). PANC-1, a human pancreatic cancer cell line, was isolated from the pancreatic duct (ATCC, CRL-1469) and was cultured in Dulbecco’s Modified Eagle’s Medium (DMEM) by supplementing 10% fetal bovine serum (FBS) and 1% of penicillin/streptomycin (P/S). Cells were cultured at 37 °C with 5% CO2 in a humidified atmosphere. Cells were maintained in a 75 cm2 tissue culture flask. The medium was replaced every two days. The subcultivation ratio was […]
Preparation of lysates. PANC-1 cells were seeded in a Petri dishes. After 24 hours, […] were collected and centrifuged at 975 × g at 4 °C for 9 minutes. The supernatant was removed, and the cells were resuspended in a cold PBS buffer. The cells were centrifuged again at 900 × g at 4 °C for 5 minutes.
The supernatant was removed. Cells were suspended in Halt Protease Inhibitor Cocktail, EDTA-Free (100X) (Thermo Fisher Scientific). The samples were stored for 2 hours at -80°C. The samples were then defrosted and centrifuged at 16 000 × g at 4 °C for 20 minutes. The supernatant was stored at -80 […]
The inhibitory potency of selected peptides was examined in cell lysate alone or in presence of sunflower trypsin inhibitor (SFTI-1)6 sing furin fluorogenic substrate […] (Pepta Nova, Germany). Furin activity was determined by monitoring the AMC liberation over time with a plate reader. Measurements were performed using 96-well black plates (BRAND, Germany).
The general procedure was according to.7 In short: 20 µL of cell lysate (diluted 10 times with assay buffer pH 7.5 100 mM HEPES with 1 mM CaCl 2) was added to the well containing 60 µL of water, after 15 min in 37 °C 10 µL of peptide solution (final concentration in well 100 µM) was added. After 30 min incubation in 37 °C 10 µL substrate (100 µM final concentration) was added. […]
as §1, §2
Human serum from plasma (Sigma Aldrich, Germany) was prepared for the assay as referred previously.8 The experiments were carried out according to the procedure described before.2 The initial concentration of the peptide solutions was 1.54 mM. Each peptide solution was then diluted 10 times with human serum and incubated at 37 °C. Immediately after the start of incubation, 1, 2, 3, 5 and 24

SMILES | remaining at 5 h [1] [%] | state of peptide in human serum [1] | effect on furin-like activity in PANC-1 cell lysate [2] | reduction of initial enzyme activity in PANC-1 cell lysate ([2]; without SFTI-1) | remaining at 48 h [1] [%]
CC[C@H](C)[C@@H]1NC(=O)[C@@H]2CCCN2C(=O)[C@@H]2CCCN2C(=O)[C@H]([C@@H](C)CC)NC(=O)[C@H](CO)NC(=O)[C@H](CCCCN)NC(=O)[C@H](CCCCN)NC(=O)[C@@H](NC(=O)[C@H](CCCNC(=N)N)NC(=O)[C@@H](N)CCCCN)CSSC[C@@H](C(=O)N[C@@H](Cc2ccccc2)C(N)=O)NC1=O [FI, Lys-Arg-Cys(&)-Lys-Lys-Ser-Ile-Pro-Pro-Ile-Cys(&)-Phe-NH2, reference compound] (H-KRCKKSIPPICF-NH2; disulfide 3-11; N-terminus assumed) | ~15 | completely degraded | reduced furin-like activity | about 50% | 
CC[C@H](C)[C@@H]1NC(=O)[C@@H]2CCCN2C(=O)[C@@H]2CCCN2C(=O)[C@H]([C@@H](C)CC)NC(=O)[C@H](CO)NC(=O)[C@H](CCCCN)NC(=O)[C@H](CCCCN)NC(=O)[C@@H](NC(=O)[C@H](CCCNC(=N)N)NC(=O)[C@H](CCCNC(=N)N)NC(=O)[C@@H](N)CCCNC(=N)N)CSSC[C@@H](C(=O)N[C@@H](Cc2ccccc2)C(N)=O)NC1=O [inhibitor 3, Arg-Arg-Arg-Cys(&)-Lys-Lys-Ser-Ile-Pro-Pro-Ile-Cys(&)-Phe-NH2] (H-RRRCKKSIPPICF-NH2; disulfide 4-12) | ~25 | completely degraded | reduced furin-like activity |  | 
CC[C@H](C)[C@@H]1NC(=O)[C@@H]2CCCN2C(=O)[C@@H]2CCCN2C(=O)[C@H]([C@@H](C)CC)NC(=O)[C@H](CO)NC(=O)[C@H](CCCCN)NC(=O)[C@H](CCCCN)NC(=O)[C@@H]2CSSC[C@H](NC1=O)C(=O)N[C@@H](Cc1ccccc1)C(=O)N[C@@H](CCCCN)C(=O)N[C@@H](CCCNC(=N)N)C(=O)N[C@@H](CCCNC(=N)N)C(=O)N2 [inhibitor 5, &^1Lys-Arg-Arg-Cys(&^2)-Lys-Lys-Ser-Ile-Pro-Pro-Ile-Cys(&^2)-Phe&^1] (cyclo(KRRCKKSIPPICF); disulfide 4-12) |  |  | reduced furin-like activity |  | ~59
CC[C@H](C)[C@@H]1NC(=O)[C@@H]2CCCN2C(=O)[C@@H]2CCCN2C(=O)[C@H]([C@@H](C)CC)NC(=O)[C@H](CO)NC(=O)[C@H](CCCCN)NC(=O)[C@H](CCCCN)NC(=O)[C@@H]2CSSC[C@H](NC1=O)C(=O)N[C@@H](Cc1ccccc1)C(=O)N[C@@H](CCCNC(=N)N)C(=O)N[C@@H](CCCNC(=N)N)C(=O)N[C@@H](CCCNC(=N)N)C(=O)N2 [inhibitor 6, &^1Arg-Arg-Arg-Cys(&^2)-Lys-Lys-Ser-Ile-Pro-Pro-Ile-Cys(&^2)-Phe&^1] (cyclo(RRRCKKSIPPICF); disulfide 4-12) |  |  | reduced furin-like activity |  | ~28
